Test results reported in ChEMBL document CHEMBL1156915, “Synthesis of new thienyl ring containing HIV-1 protease inhibitors: promising preliminary pharmacological evaluation against recombinant HIV-1 proteases” (J Med Chem, 2010).

Key:
Protease = Protease (Human immunodeficiency virus 1, UniProt Q9YQ12); assay: Inhibition of recombinant wild type HIV1 protease assessed as hydrolysis of fluorogenic substrate
[1] = target: Protease (Human immunodeficiency virus 1) (UniProt Q9YQ12); assay: Inhibition of recombinant HIV1 protease assessed as residual activity at 10 nM by fluorogenic substrate assay; values are per cent of control
Sequence of Protease (Human immunodeficiency virus 1) (Q9YQ12 as listed by the source): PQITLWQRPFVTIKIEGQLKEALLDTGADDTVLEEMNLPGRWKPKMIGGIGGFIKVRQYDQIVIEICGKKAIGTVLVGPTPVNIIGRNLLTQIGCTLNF

[2] = target: Protease (Human immunodeficiency virus 1) (UniProt Q9YQ12); assay: Inhibition of recombinant wild type HIV1 protease assessed as residual activity at 1 nM by fluorogenic substrate assay; values are per cent of control
[3] = test system: Human immunodeficiency virus type 1 protease (Human immunodeficiency virus 1), Q72874 [V32I]; assay: Inhibition of recombinant HIV1 protease V32I mutant assessed as residual activity at 1 nM by fluorogenic substrate assay; values are per cent of control
[4] = test system: Human immunodeficiency virus type 1 protease (Human immunodeficiency virus 1), Q72874 [V82A]; assay: Inhibition of recombinant HIV1 protease V82A mutant assessed as residual activity at 1 nM by fluorogenic substrate assay; values are per cent of control
[5] = test system: Human immunodeficiency virus type 1 protease (Human immunodeficiency virus 1), Q72874 [V32I]; assay: Inhibition of recombinant HIV1 protease V32I mutant assessed as residual activity at 10 nM by fluorogenic substrate assay; values are per cent of control

Sequence of Protease (Q9YQ12 whole entry): as the sequence (Q9YQ12 as listed by the source) above

IC50 (Protease) | SMILES | also measured
15 nM | Cc1c(O)cccc1C(=O)N[C@@H](Cc1cc2ccccc2s1)[C@H](O)CN1C[C@H]2CCCC[C@H]2C[C@H]1C(=O)NC(C)(C)C | 
21 nM | CC(C)(C)NC(=O)[C@@H]1C[C@@H]2CCCC[C@@H]2CN1C[C@@H](O)[C@H](Cc1cccs1)NC(=O)C(CC(N)=O)NC(=O)c1ccc2ccccc2n1 (single isomer, unassigned) | 
1.2 nM | CC(C)(C)NC(=O)[C@@H]1C[C@@H]2CCCC[C@@H]2CN1C[C@@H](O)[C@H](Cc1cc(-c2ccccc2)cs1)NC(=O)C(CC(N)=O)NC(=O)c1ccc2ccccc2n1 (single isomer, unassigned) | 
5000 nM | CC(C)(C)NC(=O)[C@@H]1C[C@@H]2CCCC[C@@H]2CN1C[C@@H](O)[C@@H](NC(=O)[C@H](CC(N)=O)NC(=O)c1ccc2ccccc2n1)c1cccs1 | 
1500 nM | CC(C)(C)NC(=O)[C@@H]1C[C@@H]2CCCC[C@@H]2CN1C[C@@H](O)[C@@H](NC(=O)[C@H](CC(N)=O)NC(=O)c1ccc2ccccc2n1)c1cc(-c2ccccc2)cs1 | 

Second part, the molecule before the results:

SMILES | IC50 (Protease) | also measured
Cc1c(O)cccc1C(=O)N[C@@H](c1cccs1)[C@H](O)CN1C[C@H]2CCCC[C@H]2C[C@H]1C(=O)NC(C)(C)C | 30000 nM | 
Cc1c(O)cccc1C(=O)N[C@@H](c1cc(-c2ccccc2)cs1)[C@H](O)CN1C[C@H]2CCCC[C@H]2C[C@H]1C(=O)NC(C)(C)C | 4000 nM | 
Cc1c(O)cccc1C(=O)N[C@@H](Cc1cccs1)[C@H](O)CN1C[C@H]2CCCC[C@H]2C[C@H]1C(=O)NC(C)(C)C | 2.9 nM | residual activity [1]: 5%; residual activity [2]: 34%; residual activity [3]: 97%; residual activity [4]: 60%; residual activity [5]: 32%
Cc1c(O)cccc1C(=O)N[C@@H](Cc1cc(-c2ccccc2)cs1)[C@H](O)CN1C[C@H]2CCCC[C@H]2C[C@H]1C(=O)NC(C)(C)C | 6 nM | 
CC(C)(C)NC(=O)[C@@H]1C[C@@H]2CCCC[C@@H]2CN1C[C@@H](O)[C@H](Cc1cc2ccccc2s1)NC(=O)C(CC(N)=O)NC(=O)c1ccc2ccccc2n1 (single isomer, unassigned) | 0.6 nM | residual activity [2]: 53%; residual activity [4]: 37%
Cc1c(O)cccc1C(=O)N[C@@H](CSc1ccccc1)[C@H](O)CN1C[C@H]2CCCC[C@H]2C[C@H]1C(=O)NC(C)(C)C | 1.9 nM | 
